Test results published in patent publication US4882328A, “Thiazetidine derivatives” (Nippon Shinyaku Co. Ltd., priority 1987, dated 1989).
Converted amounts (≈) assume the structure as drawn. Structures can show the parent of a compound that is named as a salt.

What was measured:
[1] = system: S. aureus; experiment: Measurement of Minimal Growth Inhibitory Concentration (MIC), agar plate dilution, S. aureus; type: cell-based; details: Staphylococcus aureus, 10^6 CFU/ml, 37° C., 18 hours, read-out: MIC (1)
Method: (§1) 1. Measurement of Minimal Growth Inhibitory Concentration (MIC)
(§2) MIC was measured by agar plate dilution assay method in accordance with the standard by Japan Chemical Therapeutics Association (refer to Journal of Japan Chemical Therapeutics Association, 29 (1), 76 to 79 (1981).
(§3) Briefly, a bacteria suspension as incubated in a bouillon medium for measurement of sensitivity, at 37° C. for 18 hours was diluted to 10^6 CFU/ml with the same medium. This was inoculated on an agar medium for measurement of sensitivity, which contained a compound to be tested, with a microplanter and incubated at 37° C. for 18 hours and then the MIC was measured. Enoxacin was used as a control.

[2] = system: E. coli KC-14; experiment: Remedial Effect against Mouse Infectious Diseases, E. coli KC-14; type: in vivo, ddy male mice infected with E. coli KC-14; parameters: key: -: ineffective; +: somewhat poorer than enoxacin; ++: comparable to enoxacin; +++: extremely effective; details: E. coli KC-14, 5.1×10^4 CFU/mouse; single oral dose 2 h after inoculation; survival after one week, compared with enoxacin
Method: (§4) 2. Remedial Effect against Mouse Infectious Diseases:
(§5) E. coli KC-14 and P. aeruginosa E-2 each were suspended in 4% mucin, and 0.25 ml of each of the resulting suspensions was inoculated into the abdominal cavity of ddy male mice (weight: about 20 g, 4-week age, 10 mice for one group). The amount of the bacteria inoculated was 5.1×10^4 CFU/mouse for E. coli KC-14 and 7.5×10^4 CFU/mouse for P. aeruginosa E-2. Two hours after the inoculation of the bacteria, the compound to be tested was orally administered once, and the number of the animals living after one week was counted. The results obtained were compared with those using the control enoxacin.

[3] = system: P. aeruginosa E-2; experiment: Remedial Effect against Mouse Infectious Diseases, P. aeruginosa E-2; type: in vivo, ddy male mice infected with P. aeruginosa E-2; parameters: key: -: ineffective; +: somewhat poorer than enoxacin; ++: comparable to enoxacin; +++: extremely effective; details: P. aeruginosa E-2, 7.5×10^4 CFU/mouse; single oral dose 2 h after inoculation; survival after one week, compared with enoxacin
Method: as §4, §5

[4] = system: P. aeruginosa E-2; experiment: Measurement of Minimal Growth Inhibitory Concentration (MIC), agar plate dilution, P. aeruginosa; type: cell-based; details: Pseudomonas aeruginosa, E2, 10^6 CFU/ml, 37° C., 18 hours, read-out: MIC (3)
Method: as §1, §2, §3

[5] = system: E. coli; experiment: Measurement of Minimal Growth Inhibitory Concentration (MIC), agar plate dilution, E. coli; type: cell-based; details: Escherichia coli, 10^6 CFU/ml, 37° C., 18 hours, read-out: MIC (2)
Method: as §1, §2, §3

SMILES | MIC [1] [µg/mL] | Remedial Effect (2) [2] | Remedial Effect (3) [3] | MIC [4] [µg/mL] | MIC [5] [µg/mL]
CC1Sc2c(C(=O)O)c(=O)c3cnc(N4CCN(C)CC4)nc3n21 (centres unmarked) [Example 7, 1-Methyl-7-(4-methyl-1-piperazinyl)-4-oxo-4H[1,3]thiazeto[3',2'-1,2]pyrido[2,3-d]pyrimidine-3-carboxylic Acid] | 1.56 (≈ 4.49 µM) | ++ | - | 1.56 (≈ 4.49 µM) | 0.1 (≈ 0.288 µM)
CC1Sc2c(C(=O)O)c(=O)c3cc(Cl)c(N4CCN(C)CC4)nc3n21 (centres unmarked) [Example 25, 6-Chloro-1-methyl-7-(4-methyl-1-piperazinyl)-4-oxo-4H[1,3]thiazeto[3,2-a]-1,8-naphthyridine-3-carboxylic Acid Ethanesulfonate] | 0.39 | + | - | 0.78 | 0.025
CC1Sc2c(C(=O)O)c(=O)c3cc(Cl)c(N4CCNCC4)nc3n21 (centres unmarked) [Example 21, 6-Chloro-1-methyl-4-oxo-7-(1-piperazinyl)-4H[1,3]thiazeto[3,2-a]-1,8-naphthyridine-3-carboxylic Acid Hydrochloride] | 0.39 | + | + | 0.78 | 0.025
O=C(O)c1c2n(c3nc(N4CCNCC4)c(Cl)cc3c1=O)CS2 [Example 20, 6-Chloro-4-oxo-7-(1-piperazinyl)-4H[1,3]thiazeto[3,2-a]-1,8-naphthyridine-3-carboxylic Acid Hydrochloride] | 0.78 | + | - | 0.78 | 0.05
CCn1cc(C(=O)O)c(=O)c2cc(F)c(N3CCNCC3)nc21 [Enoxacin, enoxacin, reference compound] | 0.78 (≈ 2.44 µM) | ++ | ++ | 0.78 (≈ 2.44 µM) | 0.2 (≈ 0.624 µM)
CC1Sc2c(C(=O)O)c(=O)c3cc(F)c(N4CCOCC4)nc3n21 (centres unmarked) [Example 18, 6-Fluoro-1-methyl-7-morpholino-4-oxo-4H[1,3]thiazeto[3,2-a]-1,8-naphthyridine-3-carboxylic Acid] | 0.1 (≈ 0.285 µM) | + | - | 0.78 (≈ 2.22 µM) | 0.05 (≈ 0.142 µM)
O=C(O)c1c2n(c3nc(N4CCNCC4)c(F)cc3c1=O)CS2 [Example 2, 6-Fluoro-7-(1-piperazinyl)-4-oxo-4H[1,3]-thiazeto[3,2-a]-1,8-naphthyridine-3-carboxylic Acid Hydrochloride] | 0.39 | + | + | 0.39 | 0.05
CC1Sc2c(C(=O)O)c(=O)c3cc(F)c(N4CCNCC4)nc3n21 (centres unmarked) [Example 12, 6-Fluoro-1-methyl-4-oxo-7-(1-piperazinyl)-4H[1,3]thiazeto[3,2-a]-1,8-naphthyridine-3-carboxylic Acid Hydrochloride] | 0.1 | +++ | +++ | 0.1 | 0.0125
O=C(O)c1c2n(c3nc(N4CCNCC4)c(F)cc3c1=O)C(c1ccccc1)S2 (centres unmarked) [Example 34, 6-Fluoro-1-phenyl-7-piperazinyl-4-oxo-4H[1,3]thiazeto[3,2-a]-1,8-naphthylidine-3-carboxylic acid hydrochloride] | 0.39 |  |  | 0.39 | 0.1
O=C(O)c1c2n(c3nc(N4CCNCC4)c(F)cc3c1=O)C(c1ccc(F)cc1)S2 (centres unmarked) [Example 35, 6-fluoro-1-(4-fluorophenyl)-7-piperazinyl-4-oxo-4H(1,3)thiazeto(3,2-a)-1,8-naphthylidine-3-carboxylic acid] | 0.39 (≈ 0.906 µM) |  |  | 0.39 (≈ 0.906 µM) | 0.1 (≈ 0.232 µM)
CN1CCN(c2nc3c(cc2F)c(=O)c(C(=O)O)c2n3CS2)CC1 [Example 3, 6-Fluoro-7-(4-methyl-1-piperazinyl)-4-oxo-4H[1,3]-thiazeto[3,2-a]-1,8-naphthyridine-3-carboxylic Acid Hydrochloride] | 0.39 | +++ | +++ | 0.39 | 0.025
CC1Sc2c(C(=O)O)c(=O)c3cc(F)c(N4CCN(C)CC4)nc3n21 (centres unmarked) [Example 14, 6-Fluoro-1-methyl-7-(4-methyl-1-piperazinyl)-4-oxo-4H[1,3]thiazeto[3,2-a]-1,8-naphthyridine-3-carboxylic Acid] | 0.1 (≈ 0.274 µM) | +++ | +++ | 0.2 (≈ 0.549 µM) | 0.0125 (≈ 0.0343 µM)
